Experimental data: US5688938A, “Calcium receptor-active molecules” (priority 1995, dated 1997)

Assays:
[1] = serum ionized Ca^2+ in parathyroidectomized rats; assay type: in vivo, rat; settings: oral
Source text: To determine the primary target tissue upon which NPS R-467 acts to cause a hypocalcemic response, the parathyroid glands in rats were surgically removed. Animals receiving a total parathyroidectomy become hypocalcemic and are largely dependent upon dietary calcium to maintain serum Ca^2+ homeostasis.

[2] = serum/plasma Ca^2+, PTH and calcitonin in rats, oral; assay type: in vivo; settings: rat, oral
Source text: Rats (male, Sprague-Dawley, 250-300 g) were fed standard rat chow and fasted overnight prior to the experiment. NPS R-467 was suspended in corn oil and administered as a single oral dose through a gavage needle. Three hours later a sample of blood was taken from the tail vein and assessed for ionized Ca^2+ levels.

[3] = single oral doses of NPS R-568 in a healthy post-menopausal person; assay type: in vivo, human
Source text: A range of single oral doses was used to assess safety, tolerance, and changes in primary hyperparathyroidism markers (e.g., plasma concentrations of parathyroid hormone and ionized serum calcium) and of serum calcitonin.
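Wherever Serum Calcitonin is given: serum calcitonin in pg/mL.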

COc1cccc([C@@H](C)NCCCc2ccccc2Cl)c1 [NPS R-568, (R)-(+)-N-[3-(2-chlorophenyl)propyl]-α-methyl-3-methoxybenzylamine]
hypocalcemic response in parathyroidectomized rats [1]: fails to elicit a hypocalcemic response
hypocalcemic response after prior complete nephrectomy [2]: only marginally affected
Serum Calcitonin ([3]; 20 mg oral, 0 h): 3.2 pg/mL
Serum Ionized Calcium ([3]; 20 mg oral, 0 h): 1.26 mM
Serum PTH ([3]; 20 mg oral, 0 h): 31 pg/mL
Serum Calcitonin ([3]; 20 mg oral, 0.5 h): 3.8 pg/mL
Serum Ionized Calcium ([3]; 20 mg oral, 0.5 h): 1.26 mM
Serum PTH ([3]; 20 mg oral, 0.5 h): 23 pg/mL
Serum Calcitonin ([3]; 20 mg oral, 1 h): 3.2 pg/mL
Serum Ionized Calcium ([3]; 20 mg oral, 1 h): 1.26 mM
Serum PTH ([3]; 20 mg oral, 1 h): 18 pg/mL
Serum Calcitonin ([3]; 20 mg oral, 2 h): 4.5 pg/mL
Serum Ionized Calcium ([3]; 20 mg oral, 2 h): 1.26 mM
Serum PTH ([3]; 20 mg oral, 2 h): 24 pg/mL
Serum Calcitonin ([3]; 20 mg oral, 4 h): 4.2 pg/mL
Serum Ionized Calcium ([3]; 20 mg oral, 4 h): 1.26 mM
Serum PTH ([3]; 20 mg oral, 4 h): 34 pg/mL
Serum Calcitonin ([3]; 20 mg oral, 8 h): 3.9 pg/mL
Serum Ionized Calcium ([3]; 20 mg oral, 8 h): 1.26 mM
Serum PTH ([3]; 20 mg oral, 8 h): 34 pg/mL
Serum Calcitonin ([3]; 20 mg oral, 12 h): 3.2 pg/mL
Serum Ionized Calcium ([3]; 20 mg oral, 12 h): 1.23 mM
Serum PTH ([3]; 20 mg oral, 12 h): 48 pg/mL
Serum Calcitonin ([3]; 20 mg oral, 24 h): 3.6 pg/mL
Serum Ionized Calcium ([3]; 20 mg oral, 24 h): 1.29 mM
Serum PTH ([3]; 20 mg oral, 24 h): 32 pg/mL
Serum Calcitonin ([3]; 240 mg oral, 0 h): 5.8 pg/mL
Serum Ionized Calcium ([3]; 240 mg oral, 0 h): 1.26 mM
Serum PTH ([3]; 240 mg oral, 0 h): 29 pg/mL
Serum Calcitonin ([3]; 240 mg oral, 0.5 h): 4.8 pg/mL
Serum Ionized Calcium ([3]; 240 mg oral, 0.5 h): 1.26 mM
Serum PTH ([3]; 240 mg oral, 0.5 h): 18 pg/mL
Serum Calcitonin ([3]; 240 mg oral, 1 h): 6.5 pg/mL
Serum Ionized Calcium ([3]; 240 mg oral, 1 h): 1.25 mM
Serum PTH ([3]; 240 mg oral, 1 h): 6 pg/mL
Serum Calcitonin ([3]; 240 mg oral, 2 h): 7.5 pg/mL
Serum Ionized Calcium ([3]; 240 mg oral, 2 h): 1.23 mM
Serum PTH ([3]; 240 mg oral, 2 h): 6 pg/mL
Serum Calcitonin ([3]; 240 mg oral, 4 h): 6.1 pg/mL
Serum Ionized Calcium ([3]; 240 mg oral, 4 h): 1.19 mM
Serum PTH ([3]; 240 mg oral, 4 h): 10 pg/mL
Serum Calcitonin ([3]; 240 mg oral, 8 h): 4.7 pg/mL
Serum Ionized Calcium ([3]; 240 mg oral, 8 h): 1.16 mM
Serum PTH ([3]; 240 mg oral, 8 h): 27 pg/mL
Serum Calcitonin ([3]; 240 mg oral, 12 h): 5.3 pg/mL
Serum Ionized Calcium ([3]; 240 mg oral, 12 h): 1.18 mM
Serum PTH ([3]; 240 mg oral, 12 h): 35 pg/mL
Serum Calcitonin ([3]; 240 mg oral, 24 h): 8.3 pg/mL
Serum Ionized Calcium ([3]; 240 mg oral, 24 h): 1.23 mM
Serum PTH ([3]; 240 mg oral, 24 h): 34 pg/mL
Serum Calcitonin ([3]; 400 mg oral, 0 h): 3.4 pg/mL
Serum Ionized Calcium ([3]; 400 mg oral, 0 h): 1.24 mM
Serum PTH ([3]; 400 mg oral, 0 h): 33 pg/mL
Serum Calcitonin ([3]; 400 mg oral, 0.5 h): 4.0 pg/mL
Serum Ionized Calcium ([3]; 400 mg oral, 0.5 h): 1.26 mM
Serum PTH ([3]; 400 mg oral, 0.5 h): 13 pg/mL
Serum Calcitonin ([3]; 400 mg oral, 1 h): 6.0 pg/mL
Serum Ionized Calcium ([3]; 400 mg oral, 1 h): 1.25 mM
Serum PTH ([3]; 400 mg oral, 1 h): 9 pg/mL
Serum Calcitonin ([3]; 400 mg oral, 2 h): 7.1 pg/mL
Serum Ionized Calcium ([3]; 400 mg oral, 2 h): 1.22 mM
Serum PTH ([3]; 400 mg oral, 2 h): 8 pg/mL
Serum Calcitonin ([3]; 400 mg oral, 4 h): 5.2 pg/mL
Serum Ionized Calcium ([3]; 400 mg oral, 4 h): 1.19 mM
Serum PTH ([3]; 400 mg oral, 4 h): 11 pg/mL
Serum Calcitonin ([3]; 400 mg oral, 8 h): 3.8 pg/mL
Serum Ionized Calcium ([3]; 400 mg oral, 8 h): 1.13 mM
Serum PTH ([3]; 400 mg oral, 8 h): 20 pg/mL
Serum Calcitonin ([3]; 400 mg oral, 12 h): 3.7 pg/mL
Serum Ionized Calcium ([3]; 400 mg oral, 12 h): 1.15 mM
Serum PTH ([3]; 400 mg oral, 12 h): 31 pg/mL
Serum Calcitonin ([3]; 400 mg oral, 24 h): 3.0 pg/mL
Serum Ionized Calcium ([3]; 400 mg oral, 24 h): 1.22 mM
Serum PTH ([3]; 400 mg oral, 24 h): 31 pg/mL
effect on serum ionized calcium (summary) ([3]; human, higher oral doses): decrease in serum ionized calcium concentration
effect on plasma PTH (summary) ([3]; human, oral): transient dose-dependent decrease in plasma PTH concentration
effect on serum calcitonin (summary) ([3]; human, oral): no apparent change in serum calcitonin
